Reference: patent US20070082819A1 (priority 2003, published 2007)

System: eight representative weed species
Conditions: in vivo

Structure (SMILES): CCCC[N+](CCCC)(CCCC)CCCC.[Br-] [Tetrabutylammonium hyrobromide, tetrabutylammonium bromide]
- Mean Activity (%): 72%
